Experiments:
[1] = system: U2932 Human DLBCL (Diffuse large B-cell lymphoma); assay: Secondary cytotoxicity test, U2932; format: cell-based
Protocol: (§1) Particularly, the cell growth inhibition effect was measured by WST-1 cell proliferation assay [http://www.roche-applied-science.com/PROD_INF/MANUALS/CELL_MAN/apoptosis—087—088.pdf]. The compound of formula 1 was loaded in a 384-well cell culture plate. Three types of glioblastoma multiform cell lines [proneural subtype (559T), mesenchymal subtype (592T), and classical subtype (626T)], normal human astrocytes (NHA), a lung cancer cell line (A549), and a glioblastoma multiform cell line (U87MG) were distributed in the plate at the density of 4.5×10^3 cells/well, and the medium was filled up to make 50 μl per well. At this time, the concentration of the solvent DMSO for the compound of formula 1 was no more than 0.2%. After culturing the cells for 72 hours, 5 mg/ml of WST-1 reagent was added by 5 μl per well, followed by reaction for 3˜4 hours. Then OD450 was measured to investigate the effect of the compound of formula 1 on cell proliferation.
(§2) To investigate the cell growth inhibition effect of the compound of formula 1 of the present invention (azathioprine) in many different cell lines, secondary cytotoxicity test was performed with the cell lines listed in Table 5 by the same manner as described in Example 1.

[2] = system: Hela Human adenocarcinoma; assay: Secondary cytotoxicity test, Hela; format: cell-based
Protocol: as §1, §2

[3] = system: HCT-116 Human colorectal carcinoma; assay: Secondary cytotoxicity test, HCT-116; format: cell-based
Protocol: as §1, §2

[4] = system: NCI-H23 Human lung adenocarcinoma; assay: Secondary cytotoxicity test, NCI-H23; format: cell-based
Protocol: as §1, §2

[5] = system: HepG2 Human hepatocarcinoma; assay: Secondary cytotoxicity test, HepG2; format: cell-based
Protocol: as §1, §2

[6] = system: MCF-7 Human breast adenocarcinoma; assay: Secondary cytotoxicity test, MCF-7; format: cell-based; conditions: MCF7
Protocol: as §1, §2

[7] = system: PC3 Human prostate adenocarcinoma; assay: Secondary cytotoxicity test, PC3; format: cell-based; conditions: PC-3
Protocol: as §1, §2

[8] = system: MKN45 Human stomach adenocarcinoma; assay: Secondary cytotoxicity test, MKN45; format: cell-based; conditions: MKN-45
Protocol: as §1, §2

[9] = system: HaCat Human keratinocyte; assay: Secondary cytotoxicity test, HaCat; format: cell-based
Protocol: as §1, §2

[10] = system: CCD986SK Human fibroblast; assay: Secondary cytotoxicity test, CCD986SK; format: cell-based; conditions: CCD-986Sk
Protocol: as §1, §2

[11] = system: GBM #1 glioblastoma multiform patient originated cells; assay: Neurosphere formation inhibition, GBM #1; format: cell-based, human; parameters: key to inhibition of neurosphere formation: S: strong effect; I: intermediate effect; R: rare effect; conditions: GBM #1, type A (proneural), Temodal 20 μM, duration 7 day
Protocol: (§3) Particularly, to investigate neurosphere formation, glioblastoma multiform cells were cultured for a certain time and the cells were distributed again in culture vessels, followed by additional culture. Then, the number of newly generated neurospheres was measured. First, the glioblastoma multiform patient originated cells were sub-cultured, which were distributed in a 96-well plate (20, 50, and 200 cells in 50 μl of culture medium/well). 2, 6, and 20 μM of the compound of formula 1 (azathioprine) and the compound of Comparative Example 1 (Temodal) were treated thereto by 50 μl per well to make the final concentrations of 1, 3, and 10 μM. Then, the compound of formula 1 (azathioprine) and the compound of Comparative Example 1 (Temodal) were added to 50 μl of cell culture medium with the same concentrations as the above once a week, which were then cultured for 7˜23 days. When neurosphere was formed at least 50 μm in the control group not treated with the compound, the number of neurospheres in each well was counted to compare the neurosphere formation before and after the treatment of the compound of formula 1 (azathioprine) and the compound of Comparative Example 1 (Temodal).
The glioblastoma multiform cells used in this experiment were classified into 4 types, which are type A, type B, type C, and type D, according to the gene expression pattern. Methylation of MGMT (O6-me-G methyltransferase), the DNA repair protein, was confirmed in each cell line. At that time, type A [GBM #1, #2, #3] was proneural subtype, type B [GBM #4, #5, #6, #7] was classical subtype, type C [GBM #8] was mesenchymal subtype, and type D [GBM #9, #10] was non-classified glioblastoma multiform.

[12] = system: GBM #2 glioblastoma multiform patient originated cells; assay: Neurosphere formation inhibition, GBM #2; format: cell-based, human; parameters: key: S: strong effect; I: intermediate effect; R: rare effect; conditions: GBM #2, type A (proneural), Temodal 20 μM, duration 15 day
Protocol: as §3, with “2, 6, and 20 μM of the compound of formula 1 (azathioprine) and the compound of Comparative Example 1 (Temodal) were treated thereto by 50 μl per well to make the final concentrations of 1, 3, and 10 μM.” left out
(§4) The glioblastoma multiform cells used in this experiment were classified into 4 types, which are type A, type B, type C, and type D, according to the gene expression pattern. Methylation of MGMT (O6-me-G methyltransferase), the DNA repair protein, was confirmed in each cell line. […]

[13] = system: GBM #3 glioblastoma multiform patient originated cells; assay: Neurosphere formation inhibition, GBM #3; format: cell-based, human; parameters: key: S: strong effect; I: intermediate effect; R: rare effect; conditions: GBM #3, type A (proneural), Temodal 20 μM, duration 21 day
Protocol: as §3, with “2, 6, and 20 μM of the compound of formula 1 (azathioprine) and the compound of Comparative Example 1 (Temodal) were treated thereto by 50 μl per well to make the final concentrations of 1, 3, and 10 μM.” left out
as §4

[14] = system: GBM #4 glioblastoma multiform patient originated cells; assay: Neurosphere formation inhibition, GBM #4; format: cell-based, human; parameters: key: S: strong effect; I: intermediate effect; R: rare effect; conditions: GBM #4, type B (classical), Temodal 20 μM, duration 9 day
Protocol: as §3, with “2, 6, and 20 μM of the compound of formula 1 (azathioprine) and the compound of Comparative Example 1 (Temodal) were treated thereto by 50 μl per well to make the final concentrations of 1, 3, and 10 μM.” left out
as §4

[15] = system: GBM #5 glioblastoma multiform patient originated cells; assay: Neurosphere formation inhibition, GBM #5; format: cell-based, human; parameters: key: S: strong effect; I: intermediate effect; R: rare effect; conditions: GBM #5, type B (classical), Temodal 20 μM, duration 21 day
Protocol: as §3, with “2, 6, and 20 μM of the compound of formula 1 (azathioprine) and the compound of Comparative Example 1 (Temodal) were treated thereto by 50 μl per well to make the final concentrations of 1, 3, and 10 μM.” left out
as §4

[16] = system: GBM #6 glioblastoma multiform patient originated cells; assay: Neurosphere formation inhibition, GBM #6; format: cell-based, human; parameters: key: S: strong effect; I: intermediate effect; R: rare effect; conditions: GBM #6, type B (classical), Temodal 20 μM, duration 23 day
Protocol: as §3
(§5) The glioblastoma multiform cells used in this experiment were classified into 4 types, which are type A, type B, type C, and type D, according to the gene expression pattern. […]

[17] = system: GBM #7 glioblastoma multiform patient originated cells; assay: Neurosphere formation inhibition, GBM #7; format: cell-based, human; parameters: key: S: strong effect; I: intermediate effect; R: rare effect; conditions: GBM #7, type B (classical), Temodal 20 μM, duration 23 day
Protocol: as §3, §5

[18] = system: GBM #8 glioblastoma multiform patient originated cells; assay: Neurosphere formation inhibition, GBM #8; format: cell-based, human; parameters: key: S: strong effect; I: intermediate effect; R: rare effect; conditions: GBM #8, type C (mesenchymal), Temodal 20 μM, duration 15 day
Protocol: as §3, §5

[19] = system: GBM #9 glioblastoma multiform patient originated cells; assay: Neurosphere formation inhibition, GBM #9; format: cell-based, human; parameters: key: S: strong effect; I: intermediate effect; R: rare effect; conditions: GBM #9, type D (non-classified), Temodal 20 μM, duration 21 day
Protocol: as §3, with “2, 6, and 20 μM of the compound of formula 1 (azathioprine) and the compound of Comparative Example 1 (Temodal) were treated thereto by 50 μl per well to make the final concentrations of 1, 3, and 10 μM.” left out
as §4

[20] = system: GBM #10 glioblastoma multiform patient originated cells; assay: Neurosphere formation inhibition, GBM #10; format: cell-based, human; parameters: key: S: strong effect; I: intermediate effect; R: rare effect; conditions: GBM #10, type D (non-classified), Temodal 20 μM, duration 10 day
Protocol: as §3, with “2, 6, and 20 μM of the compound of formula 1 (azathioprine) and the compound of Comparative Example 1 (Temodal) were treated thereto by 50 μl per well to make the final concentrations of 1, 3, and 10 μM.” left out
as §4

[21] = system: glioblastoma multiform cells transplanted in the brain of a mouse; assay: Glioblastoma multiform orthotopic animal model, survival; format: in vivo; conditions: single treatment; for Average Survival Period: Temodal 65 mg/kg oral for 5 days from day 17 after transplantation, control 27 days; for Survival Period Extension Rate (%): vs. untreated control, Temodal 65 mg/kg oral for 5 days from day 17
Protocol: Following experiment was performed to investigate the radiosensitizing effect and chemosensitizing effect of the compound of formula 1 (azathioprine) in the glioblastoma multiform orthotopic animal model.
Particularly, to investigate the resistance against Temodal or radiotherapy in glioblastoma multiform, glioblastoma multiform cells were cultured. The cultured cells (2×10^5/5 μl) were transplanted in the brain of a mouse. 17 days later, the administration of Temodal (65 mg/kg, oral-administration) or radiotherapy (2 Gy) began, which continued for 5 days. The average survival period was investigated. […] For the comparison, the survival period of the group treated with “Avastin”, the well-known anticancer agent, is also presented.
Glioblastoma multiform, glioblastoma multiform cells were cultured. The cultured cells (2×10^5/5 μl) were transplanted in the brain of a mouse. 17 days later, the administration of Temodal (65 mg/kg, oral-administration) or radiotherapy (2 Gy) began, which continued for 5 days. Unlike the above experiment, the compound of formula 1 of the present invention (azathioprine) was co-treated to the mouse by oral-administration at the dose of 20 mg/kg every day after 11 days from the glioblastoma multiform transplantation in the mouse brain. Then, the average survival period was investigated.

[22] = system: cells of lung cancer with brain metastasis transplanted in the mouse brain; assay: Animal test with cells of lung cancer with brain metastasis, survival; format: in vivo; conditions: azathioprine 2 mg/kg oral every day after day 11, Temodal (TMZ) 65 mg/kg oral 5 days from day 17
Protocol: The cells of lung cancer with brain metastasis were obtained from Samsung Hospital (Seoul) and cultured. The cultured cells (2×10^5/5 μl) were transplanted in the mouse brain. 17 days later, Temodal administration (65 mg/kg, oral administration) began, which continued for 5 days. The compound of formula 1 of the present invention (azathioprine) was co-treated to the mouse by oral-administration at the dose of 2 mg/kg every day after 11 days from the transplantation of the cells of lung cancer with brain metastasis in the mouse brain. Then, the average survival period was investigated.

For `COc1cccc2c1C(=O)c1c(O)c3c(c(O)c1C2=O)C[C@@](O)(C(=O)CO)C[C@@H]3O[C@H]1C[C@H](N)[C@H](O)[C@H](C)O1` [Doxorubicin, reference compound], the IC50 [1] was 440 nM, the IC50 [2] was 370 nM and the IC50 [3] was 390 nM. The IC50 [4] was 190 nM, the IC50 [5] was 700 nM and the IC50 [6] was 550 nM. It also gave an IC50 [7] of 350 nM, an IC50 [8] of 280 nM and an IC50 [9] of 230 nM. The IC50 [10] was 960 nM.

`Cn1nnc2c(C(N)=O)ncn2c1=O` [Temodal, temozolomide] was tested, and the “inhibition of neurosphere formation” value [11] was “S”, the “inhibition of neurosphere formation” value [12] was “R” and the “inhibition of neurosphere formation” value [13] was “R”. The “inhibition of neurosphere formation” value [14] was “S”, the “inhibition of neurosphere formation” value [15] was “S” and the “inhibition of neurosphere formation” value [16] was “S”. For the same molecule, the “inhibition of neurosphere formation” value [17] was “S”, the “inhibition of neurosphere formation” value [18] was “R” and the “inhibition of neurosphere formation” value [19] was “S”. For the same molecule, the “inhibition of neurosphere formation” value [20] was “R”, the “Average Survival Period” value [21] was 31 days and the “Survival Period Extension Rate (%)” value [21] was 19%. For the same molecule, the “Average Survival Period” value [22] was 63 days and the “Survival Period Extension Rate (%)” value [22] was 100-129%.

For “Avastin: the well-known anticancer agent”, the “Average Survival Period” value [21] was 28 days and the “Survival Period Extension Rate (%)” value [21] was 8%.
